Biological target: T1, human TLR8 (Homo sapiens, UniProt Q9NR97)
T1 construct: host or cells: human HEK-Blue cells with NF-kB/AP1-inducible SEAP reporter
T1 sequence (Q9NR97 27-1041): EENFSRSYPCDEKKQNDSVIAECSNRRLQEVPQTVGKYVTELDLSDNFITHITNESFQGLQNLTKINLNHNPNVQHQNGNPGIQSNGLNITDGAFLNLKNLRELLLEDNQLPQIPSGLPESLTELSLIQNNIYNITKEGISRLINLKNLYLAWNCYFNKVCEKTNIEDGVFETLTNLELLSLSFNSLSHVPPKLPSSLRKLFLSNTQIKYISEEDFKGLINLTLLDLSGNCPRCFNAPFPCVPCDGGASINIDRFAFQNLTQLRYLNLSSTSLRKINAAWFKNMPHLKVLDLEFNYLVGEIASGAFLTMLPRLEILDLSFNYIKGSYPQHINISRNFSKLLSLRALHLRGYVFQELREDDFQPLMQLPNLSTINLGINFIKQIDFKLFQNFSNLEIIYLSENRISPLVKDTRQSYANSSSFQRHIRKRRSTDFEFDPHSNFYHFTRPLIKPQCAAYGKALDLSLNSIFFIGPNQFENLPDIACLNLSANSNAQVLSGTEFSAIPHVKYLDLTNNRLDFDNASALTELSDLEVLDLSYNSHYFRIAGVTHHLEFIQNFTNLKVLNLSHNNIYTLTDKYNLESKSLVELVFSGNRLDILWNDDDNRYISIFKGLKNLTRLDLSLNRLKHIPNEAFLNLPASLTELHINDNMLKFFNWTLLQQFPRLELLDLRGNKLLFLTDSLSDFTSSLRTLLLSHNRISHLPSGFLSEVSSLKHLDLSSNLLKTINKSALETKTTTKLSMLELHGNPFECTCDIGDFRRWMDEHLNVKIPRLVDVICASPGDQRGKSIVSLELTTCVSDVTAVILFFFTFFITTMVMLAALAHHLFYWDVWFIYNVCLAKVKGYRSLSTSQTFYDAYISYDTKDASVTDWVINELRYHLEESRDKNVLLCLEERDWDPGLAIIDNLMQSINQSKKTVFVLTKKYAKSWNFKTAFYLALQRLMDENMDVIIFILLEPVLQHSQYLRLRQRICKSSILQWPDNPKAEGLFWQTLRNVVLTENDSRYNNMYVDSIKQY
Test: In vitro human TLR8 reporter assay (HEK-Blue, NF-kB/AP1-inducible SEAP)
Format: cell-based
Details: at 50 μM
Method: In Vitro Human TLR7 and TLR8 Binding Reporter Assays Logarithmically-growing human HEK-Blue cells co-expressing a TLR7 or TLR8 gene and a NF-kB/AP1-inducible SEAP (secreted embryonic alkaline phosphatase; […] Cellular SEAP production is measured using an Envision plate reader instrument thirty minutes after adding freshly-made Quanti-Blue reagent (prepared by following manufacturer instructions; Invivogen, San Diego, CA) to the HEK-Blue TLR Nf-kB-SEAP cell reactions. All EC50 values (half-maximal effective concentration) are determined using proprietary data analysis software.

Nc1nc(OCCO)c2ccc(-c3ccn[nH]3)cc2n1 [Example 4, 2-((2-amino-7-(1H-pyrazol-3-yl)quinazolin-4-yl)oxy)ethan-1-ol]
TLR8 agonist activity: < 50%

Source: patent publication US12187706B2, “NLRP3 modulators” (INNATE TUMOR IMMUNITY, INC., priority 2019, dated 2025)
